This is an account of results in US7728146B2, “Enzyme inhibitors” (Probiodrug AG, priority 2006, dated 2010).

“Also recorded” adds a separate entry of the source.

Usually IC50 stands for the midpoint of a concentration-inhibition curve.

The test system of one series is liver cell carcinoma cell line Hep-G2. Nature of the series: Cytotoxicity screening and LD50 determination on Hep-G2 (LDH, CytoTox-One). The format is cell-based. The note with it: 100 μM, Hep-G2. The protocol: Cytotoxicity of the compounds may be screened using the liver cell carcinoma cell line Hep-G2.
After 24 h of cultivation in a 96 well plate (50 000 cells/well) compounds (dissolved in DMSO) are added and cytotoxicity and vitality of the cells are analysed after another 24 h of cultivation using the CytoTox-One Homogenoeous membrane toxicity assay (Promega).
Three concentrations (100 μM, 2 μM, 40 nM) of each compound are analysed in triplicates. The final DMSO concentration was 1%.
For cytotoxicity the LDH activity in the cell culture media after 24 h of incubation are analysed. The untreated control is set to 0% cytotoxicity. For the 100% value LDH activity of lysed untreated cells are analysed.
For viability cell culture media are removed from the cells and all cells are lysed using the lysis buffer. LDH activity is determined and untreated control is set to 100% viability.
For determination of LD50 the liver carcinoma cell line HEP-G2 and the neuroblastoma cell line SY5Y may be used. The effect of 8 serial dilutions of the compounds (highest concentration 1 mM) is investigated as described above.
The cytotoxicity of certain example compounds (in each case prepared by preparative synthesis) was screened using Hep-G2 cells. Compounds were tested in concentrations of 100 μM, 2 μM and 40 nM.
Regarding `NCc1c(-c2ccc(Cl)cc2Cl)ncn1CC12CC3CC(CC(C3)C1)C2` [Example 14b, C-[3-Adamantan-1-ylmethyl-5-(2,4-dichloro-phenyl)-3H-imidazol-4-yl]-methylamine], the “cytotoxic effects (summary in words)” value is recorded as “No cytotoxic effects”.

As for `CC(N)c1c(-c2ccc(Cl)cc2Cl)ncn1CCc1ccccc1` (centres unmarked) [Example 2b, 1-[5-(2,4-Dichloro-phenyl)-3-phenethyl-3H-imidazol-4-yl]-ethylamine], the “cytotoxic effects (summary in words)” value is recorded as “No cytotoxic effects”.

For `COc1ccc(Cn2cnc(-c3ccc(Cl)cc3Cl)c2CN)c(OC)c1` [Example 8b, C-[5-(2,4-Dichloro-phenyl)-3-(2,4-dimethoxy-benzyl)-3H-imidazol-4-yl]-methylamine], the “cytotoxic effects (summary in words)” value is given as “No cytotoxic effects”.

As to `NCc1c(-c2ccc(Cl)cc2Cl)ncn1CCc1c[nH]c2ccccc12` [Example 1b, C-{5-(2,4-Dichloro-phenyl)-3-[2-(1H-indol-3-yl)-ethyl]-3H-imidazol-4-yl}-methylamine], the “cytotoxic effects (summary in words)” value is recorded as “Strong cytotoxic effects”.

With `CC(C)CCn1cnc(-c2ccc(Cl)cc2Cl)c1CN` [Example 7b, C-[5-(2,4-Dichloro-phenyl)-3-(3-methyl-butyl)-3H-imidazol-4-yl]-methylamine], the “cytotoxic effects (summary in words)” value is reported as “Strong cytotoxic effects; also recorded: strongest cytotoxicity”.

With `Cc1ccccc1Cn1cnc(-c2ccc(Cl)cc2Cl)c1C(C)N` (centres unmarked) [Example 15b, 1-[5-(2,4-Dichloro-phenyl)-3-(2-methyl-benzyl)-3H-imidazol-4-yl]-ethylamine], the “cytotoxic effects (summary in words)” value was “No cytotoxic effects”.

For the next series, the target named is DP IV (Homo sapiens, UniProt P27487). Nature of the series: DP IV inhibition IC50, parallel-synthesis compounds tested directly following synthesis (without purification). The format is biochemical. Also on record: IC50 DP4; other: tested directly following parallel synthesis, without purification; compounds of formula (Ib) from parallel synthesis, tested directly following synthesis. The note with it: DP IV inhibition; compounds of formula (Ib) from parallel synthesis, tested directly following synthesis (without purification); read-out: IC50. The method, boiled down: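 Porcine kidney or recombinant human enzyme (~40-50 μU/ml, HEPES buffer) hydrolysing Gly-Pro-pNA at room temperature, with 5% DMSO final; 11-point 1:2 dilutions from 100 μM final, in duplicate. pNA release read at 405 nm over ~18 min; slopes vs solvent control give residual activity, and IC50 comes from a 4-parameter fit.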
In the case of `NCc1c(-c2ccc(Cl)cc2Cl)ncn1CC12CC3CC(CC(C3)C1)C2` [Example 14b, C-[3-Adamantan-1-ylmethyl-5-(2,4-dichloro-phenyl)-3H-imidazol-4-yl]-methylamine], the concentration for half-maximal inhibition (IC50) was found to be 19 µM.

Turning to `CC(N)c1c(-c2ccc(Cl)cc2Cl)ncn1CCc1ccccc1` (centres unmarked) [Example 2b, 1-[5-(2,4-Dichloro-phenyl)-3-phenethyl-3H-imidazol-4-yl]-ethylamine], the concentration for half-maximal inhibition (IC50) is 32.5 µM.

On to `COc1ccc(Cn2cnc(-c3ccc(Cl)cc3Cl)c2CN)c(OC)c1` [Example 8b, C-[5-(2,4-Dichloro-phenyl)-3-(2,4-dimethoxy-benzyl)-3H-imidazol-4-yl]-methylamine], for which the IC50 turned out to be 12.7 µM.

Turning to `NCc1c(-c2ccc(Cl)cc2Cl)ncn1CCc1c[nH]c2ccccc12` [Example 1b, C-{5-(2,4-Dichloro-phenyl)-3-[2-(1H-indol-3-yl)-ethyl]-3H-imidazol-4-yl}-methylamine], the IC50 came to 3.7 µM.

In the case of `CC(C)CCn1cnc(-c2ccc(Cl)cc2Cl)c1CN` [Example 7b, C-[5-(2,4-Dichloro-phenyl)-3-(3-methyl-butyl)-3H-imidazol-4-yl]-methylamine], the IC50 is 8.2 µM.

Consider `COc1ccc(Cn2cnc(-c3ccc(Cl)cc3Cl)c2C(C)N)cc1OC` (centres unmarked) [95b, 1-[5-(2,4-Dichloro-phenyl)-3-(3,4-dimethoxy-benzyl)-3H-imidazol-4-yl]-ethylamine], for which the IC50 came out at 19.9 µM.

On to `CC(N)c1c(-c2ccc(Cl)cc2Cl)ncn1Cc1cc(F)ccc1F` (centres unmarked) [36b, 1-[5-(2,4-Dichloro-phenyl)-3-(2,5-difluoro-benzyl)-3H-imidazol-4-yl]-ethylamine], for which the IC50 stood at 25.3 µM.

`NCc1c(-c2ccc(Cl)cc2Cl)ncn1CCCCc1ccccc1` [42b, C-[5-(2,4-Dichloro-phenyl)-3-(4-phenyl-butyl)-3H-imidazol-4-yl]-methylamine]: the IC50 was determined as 7.3 µM.

As for `Cc1ccccc1Cn1cnc(-c2ccc(Cl)cc2Cl)c1CN` [Example 33b, C-[5-(2,4-dichloro-phenyl)-3-(2-methyl-benzyl)-3H-imidazol-4-yl]-methylamine], the IC50 was 4.6 µM.

For the compound `Cc1ccccc1Cn1cnc(-c2ccc(Cl)cc2Cl)c1C(C)N` (centres unmarked) [Example 15b, 1-[5-(2,4-Dichloro-phenyl)-3-(2-methyl-benzyl)-3H-imidazol-4-yl]-ethylamine], the IC50 is 19 µM.

Regarding `NCc1c(-c2ccc(Cl)cc2Cl)ncn1CCN1CCCCC1` [58b, C-[5-(2,4-Dichloro-phenyl)-3-(2-piperidin-1-yl-ethyl)-3H-imidazol-4-yl]-methylamine], the half-maximal inhibitory concentration (IC50) was found to be 42.4 µM.

Regarding `NCc1c(-c2ccc(Cl)cc2Cl)ncn1CCOc1ccccc1` [100b, C-[5-(2,4-Dichloro-phenyl)-3-(2-phenoxy-ethyl)-3H-imidazol-4-yl]-methylamine], the IC50 was determined as 34.3 µM.

On to `NCc1c(-c2ccc(Cl)cc2Cl)ncn1CCc1ccccc1` [57b, C-[5-(2,4-Dichloro-phenyl)-3-phenethyl-3H-imidazol-4-yl]-methylamine], for which the 50% inhibitory concentration (IC50) was found to be 9.1 µM.

As to `NCc1c(-c2ccc(Cl)cc2Cl)ncn1Cc1ccc(Cl)c(Cl)c1` [77b, C-[3-(3,4-Dichloro-benzyl)-5-(2,4-dichloro-phenyl)-3H-imidazol-4-yl]-methylamine], the IC50 was 7.3 µM.

As for `NCc1c(-c2ccc(Cl)cc2Cl)ncn1CCO` [56b, 2-[5-Aminomethyl-4-(2,4-dichloro-phenyl)-imidazol-1-yl]-ethanol], the half-maximal inhibitory concentration (IC50) amounted to 19.9 µM.

On to `NCc1c(-c2ccc(Cl)cc2Cl)ncn1CCc1cccc(Cl)c1` [52b, C-[3-[2-(3-Chloro-phenyl)-ethyl]-5-(2,4-dichloro-phenyl)-3H-imidazol-4-yl]-methylamine], for which the 50% inhibitory concentration (IC50) stood at 5.5 µM.

Regarding `Cc1cnc(Cn2cnc(-c3ccc(Cl)cc3Cl)c2CN)cn1` [27b, C-[5-(2,4-Dichloro-phenyl)-3-(5-methyl-pyrazin-2-ylmethyl)-3H-imidazol-4-yl]-methylamine], the IC50 is 19.9 µM.

With `COc1ccc(Cn2cnc(-c3ccc(Cl)cc3Cl)c2CN)cc1OC` [5b, C-[5-(2,4-Dichloro-phenyl)-3-(3,4-dimethoxy-benzyl)-3H-imidazol-4-yl]-methylamine], the IC50 is 19.9 µM.

`NCc1c(-c2ccc(Cl)cc2Cl)ncn1CCN1CCOCC1` [10b, C-[5-(2,4-Dichloro-phenyl)-3-(2-morpholin-4-yl-ethyl)-3H-imidazol-4-yl]-methylamine]: the IC50 is 12.7 µM.

The same series, now with this note: tested directly following parallel synthesis, without purification; read-out: IC50 DP4.
On to `NCc1c(-c2ccc(Cl)cc2Cl)ncn1Cc1c(F)cccc1Cl` [Example 45a, C-[3-(2-Chloro-6-fluoro-benzyl)-5-(2,4-dichloro-phenyl)-3H-imid-azol-4-yl]-methyl-amine], for which the IC50 amounted to 1.9 µM.

`NCc1c(-c2ccc(Cl)cc2Cl)ncn1Cc1c(F)cccc1F` [Example 37a, C-[5-(2,4-Dichloro-phenyl)-3-(2,6-difluoro-benzyl)-3H-imid-azol-4-yl]-methyl-amine]: the concentration for half-maximal inhibition (IC50) amounted to 4.6 µM.

Turning to `NCc1c(-c2ccc(F)cc2Cl)ncn1Cc1cccc(Cl)c1Cl` [Example 20a, C-[5-(2-Chloro-4-fluoro-phenyl)-3-(2,3-di-chloro-benzyl)-3H-imid-azol-4-yl]-meth-ylamine], the IC50 was found to be 34.3 µM.

Consider `NCc1c(-c2ccc(F)cc2Cl)ncn1Cc1ccsc1` [Example 11a, C-[5-(2-Chloro-4-fluoro-phenyl)-3-thiophen-3-ylmethyl-3H-imidazol-4-yl]-methylamine], for which the IC50 was 4.6 µM.

Consider `NCc1c(-c2ccc(Cl)cc2Cl)ncn1Cc1ccc(Cl)c(Cl)c1` [Example 58a, C-[3-(3,4-Dichloro-benzyl)-5-(2,4-dichloro-phenyl)-3H-imid-azol-4-yl]-methyl-amine], for which the IC50 is 1.9 µM.

With `NCc1c(-c2ccc(F)cc2Cl)ncn1Cc1ccccc1OC(F)(F)F` [Example 23a, C-[5-(2-Chloro-4-fluoro-phenyl)-3-(2-tri-fluoromethoxy-benzyl)-3H-imid-azl-4-yl]-methyl-amine], the IC50 is 5.5 µM.

In the case of `COc1cccc(Cn2cnc(-c3ccc(Cl)cc3Cl)c2CN)c1` [Example 41a, C-[5-(2,4-Dichloro-phenyl)-3-(3-methoxy-benzyl)-3H-imid-azol-4-yl]-methyl-amine], the IC50 stood at 0.1 µM.

Turning to `CCn1cnc(-c2ccc(Cl)cc2Cl)c1CN` [Example 59a, C-[5-(2,4-Dichloro-phenyl)-3-eth-yl-3H-imid-azol-4-yl]-methyl-amine], the IC50 is 25.3 µM.

For `NCc1c(-c2ccc(F)cc2Cl)ncn1Cc1ccc(Cl)cc1` [Example 22a, C-[3-(4-Chloro-benzyl)-5-(2-chloro-4-fluoro-phenyl)-3H-imid-azol-4-yl]-methyl-amine], the IC50 amounted to 37.9 µM.

Take `Cc1ccc(Cn2cnc(-c3ccc(Cl)cc3Cl)c2CN)cc1` [Example 56a, C-[5-(2,4-Dichloro-phenyl)-3-(4-methyl-benzyl)-3H-imid-azol-4-yl]-methyl-amine]: the IC50 was found to be 2.8 µM.

`NCc1c(-c2ccc(Cl)cc2Cl)ncn1Cc1ccc2c(c1)OCO2` [Example 48a, C-[3-Ben-zo[1,3]di-oxol-5-yl-methyl-5-(2,4-dichloro-phenyl)-3H-imid-azol-4-yl]-methyl-amine]: the IC50 was determined as 0.1 µM.

For the compound `Cc1ccc(-c2ncn(Cc3ccccc3)c2CN)c(C)c1` [Example 69a, C-[3-Benzyl-5-(2,4-di-methyl-phenyl)-3H-imid-azol-4-yl]-methyl-amine], the IC50 turned out to be 40.6 µM.

As to `NCc1c(-c2ccc(Cl)cc2Cl)ncn1Cc1ccc(F)cc1F` [Example 39a, C-[5-(2,4-Dichloro-phenyl)-3-(2,4-difluoro-benzyl)-3H-imid-azol-4-yl]-methyl-amine], the IC50 is 1 µM.

With `NCc1c(-c2ccc(F)cc2Cl)ncn1Cc1cc(F)ccc1F` [Example 27a, C-[5-(2-Chloro-4-fluoro-phenyl)-3-(2,5-difluoro-benzyl)-3H-imid-azol-4-yl]-methyl-amine], the IC50 came out at 22.6 µM.

For `CC(C)(C)Cn1cnc(-c2ccc(Cl)cc2Cl)c1CN` [Example 53a, C-[5-(2,4-Dichloro-phenyl)-3-(2,2-dimethyl-propyl)-3H-imid-azol-4-yl]-methyl-amine], the IC50 stood at 1 µM.

`CCCn1cnc(-c2ccc(F)cc2Cl)c1CN` [Example 8a, C-[5-(2-Chloro-4-fluoro-phenyl)-3-pro-pyl-3H-imid-azol-4-yl]-methyl-amine]: the IC50 was determined as 48.7 µM.
